Converted amounts (≈) assume the structure as drawn.
How the values were obtained:
[1] = Cmax in human at […], po after 3 months; assay type: ADME, organism-based; set-up: route oral; details: in vivo
[2] = Tmax in human at […], po after 3 months; assay type: ADME, organism-based; details: in vivo
[3] = Aqueous solubility of the compound; assay type: physicochemical

For `COc1cc(/C=C/C(=O)CC(=O)/C=C/c2ccc(O)c(OC)c2)ccc1O` [CURCUMIN], the Cmax [1] was 1770 nM, the Tmax [2] was 1 to 2 h and the solubility [3] was 1000 to 10000 µg/mL (≈ 2.71 to 27.1 mM).

From ChEMBL document CHEMBL4373716, “Curcumin as tyrosine kinase inhibitor in cancer treatment” (Eur J Med Chem, 2019)
